These results are taken from publication PMC12220853, “Natural aminosterols inhibit NMDA receptors with low nanomolar potency” (The Febs Journal, 2025).

This assay concerns the target T1, N-methyl-D-aspartate receptor (NMDAR), native in hippocampal neurons (Rattus norvegicus, UniProt P35439+Q00959+Q00960).
T1 construct: gene Grin1; native heteromeric receptor in primary rat hippocampal neurons; with GluN2A / GluN2B (native mixture, mostly GluN1/2A/2B)
Briefly: whole-cell patch clamp of NMDA-activated currents in primary rat hippocampal neurons ([…] NMDA, […] glycine). Type of assay: cell-based.

Molecules are shown by their SMILES.

T1 sequence (Q00959 23-1464, other chains not shown): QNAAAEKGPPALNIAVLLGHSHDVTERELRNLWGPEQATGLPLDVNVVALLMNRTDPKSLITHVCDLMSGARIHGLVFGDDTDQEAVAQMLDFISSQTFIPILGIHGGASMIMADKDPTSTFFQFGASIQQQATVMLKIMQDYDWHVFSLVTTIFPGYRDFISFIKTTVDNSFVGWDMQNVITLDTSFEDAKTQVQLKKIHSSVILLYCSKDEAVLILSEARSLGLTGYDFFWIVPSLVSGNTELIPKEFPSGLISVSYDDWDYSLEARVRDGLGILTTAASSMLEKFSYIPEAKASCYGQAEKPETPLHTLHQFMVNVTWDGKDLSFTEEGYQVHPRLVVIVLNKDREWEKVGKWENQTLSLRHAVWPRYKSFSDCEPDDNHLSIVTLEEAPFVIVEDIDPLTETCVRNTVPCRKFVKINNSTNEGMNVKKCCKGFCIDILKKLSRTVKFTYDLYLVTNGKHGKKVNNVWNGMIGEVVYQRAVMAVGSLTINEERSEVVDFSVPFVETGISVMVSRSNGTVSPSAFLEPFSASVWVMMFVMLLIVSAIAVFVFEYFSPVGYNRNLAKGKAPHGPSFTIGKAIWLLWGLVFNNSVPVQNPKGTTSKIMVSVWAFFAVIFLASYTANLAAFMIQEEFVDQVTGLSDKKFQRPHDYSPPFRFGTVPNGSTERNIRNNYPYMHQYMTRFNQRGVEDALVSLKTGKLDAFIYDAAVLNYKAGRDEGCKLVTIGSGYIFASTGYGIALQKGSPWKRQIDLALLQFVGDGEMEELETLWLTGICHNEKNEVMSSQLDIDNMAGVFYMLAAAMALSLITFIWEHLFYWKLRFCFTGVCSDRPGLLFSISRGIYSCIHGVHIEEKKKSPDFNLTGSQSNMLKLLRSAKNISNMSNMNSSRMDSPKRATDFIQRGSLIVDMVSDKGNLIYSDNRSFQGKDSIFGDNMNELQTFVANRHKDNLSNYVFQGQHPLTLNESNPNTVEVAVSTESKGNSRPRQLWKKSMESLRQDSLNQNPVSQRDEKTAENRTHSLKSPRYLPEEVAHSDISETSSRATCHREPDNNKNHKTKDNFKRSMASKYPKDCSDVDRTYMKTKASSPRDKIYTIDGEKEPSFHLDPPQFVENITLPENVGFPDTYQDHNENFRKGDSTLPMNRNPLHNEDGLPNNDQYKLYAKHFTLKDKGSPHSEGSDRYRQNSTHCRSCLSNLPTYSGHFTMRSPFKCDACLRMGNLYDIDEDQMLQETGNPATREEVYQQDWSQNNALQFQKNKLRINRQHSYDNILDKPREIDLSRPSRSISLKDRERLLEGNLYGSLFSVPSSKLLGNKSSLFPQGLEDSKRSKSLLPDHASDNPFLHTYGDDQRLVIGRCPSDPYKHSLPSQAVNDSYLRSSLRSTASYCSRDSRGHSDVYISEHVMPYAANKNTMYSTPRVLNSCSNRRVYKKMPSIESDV
T1 sequence (Q00960 27-1482, other chains not shown): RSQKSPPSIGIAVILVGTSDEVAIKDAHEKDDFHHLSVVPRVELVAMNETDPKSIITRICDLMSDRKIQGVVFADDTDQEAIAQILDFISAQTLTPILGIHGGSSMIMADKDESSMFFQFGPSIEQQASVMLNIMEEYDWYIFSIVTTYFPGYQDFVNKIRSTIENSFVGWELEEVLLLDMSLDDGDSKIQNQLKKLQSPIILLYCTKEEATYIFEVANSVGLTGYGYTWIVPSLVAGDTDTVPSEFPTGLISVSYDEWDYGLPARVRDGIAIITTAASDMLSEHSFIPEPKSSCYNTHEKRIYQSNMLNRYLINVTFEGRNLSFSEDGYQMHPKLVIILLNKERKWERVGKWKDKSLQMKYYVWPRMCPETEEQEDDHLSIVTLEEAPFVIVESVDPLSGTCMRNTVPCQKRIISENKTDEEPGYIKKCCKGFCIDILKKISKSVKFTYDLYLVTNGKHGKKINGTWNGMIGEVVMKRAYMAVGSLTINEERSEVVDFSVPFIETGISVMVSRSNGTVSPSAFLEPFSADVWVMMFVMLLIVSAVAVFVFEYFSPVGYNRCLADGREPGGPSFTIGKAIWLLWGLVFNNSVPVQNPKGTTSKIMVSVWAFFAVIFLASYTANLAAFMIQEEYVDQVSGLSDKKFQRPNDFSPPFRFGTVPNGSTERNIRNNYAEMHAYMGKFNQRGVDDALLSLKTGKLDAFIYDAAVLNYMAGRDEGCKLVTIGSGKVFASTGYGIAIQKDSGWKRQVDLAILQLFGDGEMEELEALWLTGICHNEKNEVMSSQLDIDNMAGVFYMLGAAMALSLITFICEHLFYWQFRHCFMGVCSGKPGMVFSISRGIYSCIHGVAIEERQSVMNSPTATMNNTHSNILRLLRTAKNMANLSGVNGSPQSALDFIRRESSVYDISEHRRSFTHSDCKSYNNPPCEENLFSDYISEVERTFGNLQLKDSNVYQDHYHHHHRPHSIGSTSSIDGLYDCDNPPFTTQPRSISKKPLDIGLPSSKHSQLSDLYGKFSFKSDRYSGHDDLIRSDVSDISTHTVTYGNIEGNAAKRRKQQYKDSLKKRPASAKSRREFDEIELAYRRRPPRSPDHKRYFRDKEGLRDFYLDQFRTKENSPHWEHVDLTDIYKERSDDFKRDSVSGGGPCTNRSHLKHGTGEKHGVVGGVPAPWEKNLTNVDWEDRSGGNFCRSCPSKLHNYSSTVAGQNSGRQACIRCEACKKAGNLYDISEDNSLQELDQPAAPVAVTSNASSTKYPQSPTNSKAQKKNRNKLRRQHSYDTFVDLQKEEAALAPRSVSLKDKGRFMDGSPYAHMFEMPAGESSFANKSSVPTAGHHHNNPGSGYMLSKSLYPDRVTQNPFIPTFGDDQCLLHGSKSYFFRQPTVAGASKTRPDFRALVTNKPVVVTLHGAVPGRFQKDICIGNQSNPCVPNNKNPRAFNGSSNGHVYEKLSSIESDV

As usually defined, the IC50 is the concentration that gives 50% inhibition. A higher IC50 goes with a need for much substance. As to `CC(C)[C@@H](CC[C@@H](C)[C@H]1CC[C@H]2[C@@H]3[C@H](O)C[C@H]4C[C@@H](NCCCNCCCCNCCCN)CC[C@]4(C)[C@H]3CC[C@]12C)OS(=O)(=O)O` [TRO, trodusquemine], the IC50 is 5.1 nM.
